# In patent publication US20230277491A1, “PHARMACEUTICAL COMBINATION COMPRISING GLYCOLIC ACID AND L-ALANINE” (priority 2020, published 2023):
# Key:
# [1] = system: HeLa cells; experiment: Intracellular calcium, Fluo4-AM loaded HeLa cells, fluorescent plate reader; assay type: cell-based; details: FIG. 12
# Excerpt: HeLa cells were loaded with Fluo4-AM and fluorescence was monitored with the help of a fluorescent plate reader. Values are normalized to the initial fluorescent value.
# [2] = system: HeLa cells treated with siRNA against PARK-7/DJ-1; experiment: Calcium imaging on HeLa cells during mitosis after PARK-7/DJ-1 down-regulation; assay type: cell-based; details: PARK-7/DJ-1 down-regulated HeLa cells, 5 mM, FIG. 17
# Method: HeLa cells were loaded with Fluo-4 AM, a dye used to measure calcium concentration in living cells, as described by the manufacturer and recorded for 4 hours. Graphics show the variations in intracellular calcium concentration during mitosis in WT and cells treated with siRNA against PARK-7/DJ-1 to down-regulate this gene.
# HeLa-Kyoto cells stably expressing histone H2B-mCherry and mouse DJ-1 were used. Cells were maintained in DMEM supplemented with 10% fetal bovine serum (FBS), 2 mM GlutaMAX, 100 unit/ml penicillin, 100 μg/ml streptomycin. For esiRNA treatment, cells were plated at a density of 15.000 cells/well in an ibidi 8 well chamber (Cat. no 80826, ibidi, Germany, EU), transfected with different esiRNAs (RLUC as empty vector, hPARK-7 and hKIF11 as positive control) (all esiRNAs were obtained from Eupheria, Germany, EU), and left for 72 hours before performing calcium imaging. esiRNA transfection was performed as follows. esiRNA was diluted in distilled water to a concentration of 20 ng/μl. For each well, two solutions were made: 1. […]
# We observed that the Fluo-4 AM dye started to leak out of the cells into the medium after 1.5 hours of imaging. […] Images were analyzed using FIJI Image Analysis Freeware (https://fiji.sc). MFI of the Fluo-4 AM signal within the cell was determined using manually selected ROIs covering the whole cell area for each time-point. […]
# [3] = system: djr1.1/djr1.2 and glod-4 KO C. elegans; experiment: Embryonic lethality in C. elegans (percentage of hatched eggs); assay type: in vivo; details: worms fed with substance, FIG. 18
# Method: All C. elegans strains were maintained on NGM agar plates seeded with Escherichia coli NA22 at 15° C.
# [4] = system: DJ-1 RNAi depleted HeLa cells; details: cited from earlier work
# [5] = system: dopaminergic neurons; details: cited from earlier work
# [6] = system: dopaminergic neurons; experiment: Survival of dopaminergic neurons with paraquat 25 μM challenge (Example 1, FIG. 1); assay type: cell-based, mouse
# Method: (§1) Dopaminergic neurons were isolated and plated at a concentration of 1.000.000 cells/ml (100 μl/well) in a 96 well plate and cultured in medium with one or more of the various factors indicated, as described in the examples below. The survival of dopaminergic neurons in the presence and absence of various agents of the invention, either with or without paraquat challenge, is shown by the number of TH positive neurons normalized to the control treatment.
# Dopaminergic neurons were isolated and plated at a concentration of 1.000.000 cells/ml (100 μl/well) in a 96 well plate. After 3-4 hours incubation at 37° C., 20 μl of medium was removed from each well. (VF=80 μl). Changes in medium and start point of the treatment were done in the following day in vitro (DIV). The following protocol was employed in order to assess the survival of dopaminergic neurons in the presence and absence of various agents of the invention combination, either with or without paraquat challenge. • DIV.1: Change half of medium N2 (40 μl) with fresh medium N2. • DIV.3: Change half of the medium and start with medium (control) or with medium A containing LA (different concentrations) and/or GA (normally 5 mM or 10 mM). Medium A is N2 medium but without FBS and N2-Supplement. • DIV.5: Second round of control or treatment with LA and/or GA. Half of the medium (40 μl) was replaced by fresh medium A with the different agents. • DIV.7: Paraquat 25 μM treatment starts with or without GA and L-alanine. Half of the medium (40 μl) was replaced by fresh medium A with the different treatment combinations or without (control). • DIV.9: Second day of treatment with Paraquat (PQ) 25 μM in addition to the other substances (LA and GA). • DIV.10: Fixation 2% of PFA during 20 min at 37° C. or overnight at 4° C.
# Primary mesencephalic neuronal cell cultures were prepared as previously described. Briefly, E14.5 embryos were obtained from C57JBL6 pregnant mice after cervical dislocation. Brain mesencephali were dissected under the microscope and digested with Trypsin-EDTA 0.12% (Life Technologies, USA) for 7 min. The trypsin reaction was then stopped by adding basic medium (BM), containing Neurobasal A medium (Gibco, USA), 1 mg/mL Pen/Strep, 10% FCS, and […] L-Glutamine, and cells were mechanically dissociated using a fire-polished Pasteur pipette. Medium was fully replaced after 5 min, centrifugation at 1200 rpm, aspiring the supernatant and adding 8 mL of fresh BM to the pellet. Concentration of cells in the medium was estimated using a Neubauer chamber and a 100 μL of medium containing 10^6 cells/mL plated per well in a 96-well plate (Greiner Sensoplate, Germany, EU). Then a 20 μL of medium was removed from the well and 24 h later, ⅓ of the media was replaced with fresh BM. […]
# [7] = human, in vivo
# Excerpt: Potential side effects were closely monitored.
# [8] = system: dopaminergic neurons; experiment: Survival of dopaminergic neurons with paraquat 12.5 μM challenge (Example 5, FIGS. 19, 20); assay type: cell-based, mouse
# Method: as §1
# Dopaminergic neurons were isolated and plated at a concentration of 1.000.000 cells/ml (100 μl/well) in a 96 well plate. After 3-4 hours incubation at 37° C., 20 μl of medium was removed from each well. (VF=80 μl). Changes in medium and start point of the treatment were on the following day in vitro (DIV). The following protocol was employed to assess the survival of dopaminergic neurons in the presence and absence of various agents of the inventive combination, either with or without paraquat challenge. • DIV.1: Change half of medium N2 (40 μl) with fresh medium N2. • DIV.3: Change half of the medium and start with medium (control) or with medium A containing PB (0.15 mM) and TUDCA (0.5 mM), or with Medium A containing GA (normally 1 mM, 3 mM, or 10 mM) or with Medium A containing GA (1 mM or 3 mM) and PB (0.15 mM) or with Medium A containing GA (5 mM) and TUDCA (0.5 mM) or with Medium A containing PB (0.15 mM). Medium A is N2 medium but without FBS and N2-Supplement. • DIV.5: Second round of control or treatment with different treatments. Half of the medium (40 μl) was replaced by fresh medium A with the different agents. • DIV.7: Paraquat 12.5 μM treatment starts alone or in combination with the treatments explained above. Half of the medium (40 μl) was replaced by fresh medium A with the different treatment combinations or without (control). • DIV.9: Second day of treatment with Paraquat (PQ) 12.5 μM in addition to the other treatments as explained above. • DIV.11: Fixation 2% of PFA during 20 min at 37° C. or overnight at 4° C.
# The effect of the different treatments on dopaminergic neurons survival upon exposure to paraquat was assessed through of TH+ neurons after treatment. Briefly, neurons were fixed using 2% paraformaldehyde for immunocytochemical analysis after treatment. Dopaminergic TH^+ neurons per well were identified and counted using an inverted fluorescence microscope (Olympus) under a 20× objective.
# [9] = estimated; cited from earlier work
# [10] = 5 g tablet or powder by mouth; cited from earlier work
compound,measurement,setting,value
"C[C@@H](O)C(=O)O [DL, D-(−)-lactic acid]",intracellular calcium (Fluo4-AM fluorescence normalized to initial value),[1],reduce intracellular calcium
same,calcium influx during mitosis,[2],able to rescue this phenotype
same,embryonic lethality (percentage of hatched eggs),[3],rescue of embryonic lethality
same,mitochondrial potential,[4],maintain or rescue mitochondrial potential
same,survival of dopaminergic neurons,[5],rescued the survival of dopaminergic neurons
"C[C@H](N)C(=O)O [LA, L-Alanine]",survival of dopaminergic neurons (rescue),[6]; 0.01 mM LA alone with PQ 25 μM,no rescue
same,"prevention of kidney damage or stones, renal or liver disfunction",[7],sufficient to prevent any kidney damage or stones
same,side effects / function of the kidney or liver,[7],avoid any unwanted side effects or reductions in function of the kidney or liver
"O=C(O)CCCc1ccccc1 [PB, 4-Phenylbutyric acid, reference compound]",number of TH positive neurons normalized to the control treatment,"[8]; PQ 12.5 μM + 0.15 mM PB, FIG. 19",0.72
"C[n+]1ccc(-c2cc[n+](C)cc2)cc1 [PQ, Paraquat, reference compound]",survival of dopaminergic neurons (number of TH positive neurons normalized to the control treatment),[6]; PQ 25 μM alone,severe reduction in neuron survival
same,number of TH positive neurons normalized to the control treatment,"[8]; PQ 12.5 μM alone, FIG. 19",0.58
same,number of TH positive neurons normalized to the control treatment,"[8]; PQ 12.5 μM alone, FIG. 20",0.44
OCCOCCO [diethylene glycol],minimum toxic dose,[9],0.14 mg glycolic acid per kg of body weight
sodium phenylbutyrate,time to metabolism into phenylacetate,[10],within half an hour
same,time to peak concentration in the bloodstream,[10],within an hour
same,time until detected in the blood,[10],≤ 15 min
